Test results: ChEMBL document CHEMBL4049411, “Rational Design, Synthesis, and Biological Evaluation of Heterocyclic Quinolones Targeting the Respiratory Chain of Mycobacterium tuberculosis” (J Med Chem, 2017)
In brackets after ≈: the same amount, converted by molar mass.

Columns and labels:
[1] = Intrinsic clearance in mouse microsomes; format: ADME, Microsome; settings: read-out: CLH
[2] = (§1) Inhibition of replicating Mycobacterium tuberculosis H37Rv NDH assessed as cell growth inhibition after 7 days by MABA method; settings: 168 h
[3] = system: Mycobacterium tuberculosis H37Rv; test: as §1
[4] = Metabolic stability in mouse liver microsomes assessed as half life for metabolic turnover at 0.1 to 10 uM preincubated for 60 mins in presence of NADPH measured up to 60 mins by mass spectroscopic analysis; format: ADME, microsome
[5] = Retention time of compound by HPLC anlaysis
[6] = Solubility of compound at pH 7.4; format: physicochemical; settings: buffer
[7] = system: Mycobacterium tuberculosis; test: Growth inhibition of dormant Mycobacterium tuberculosis H37Rv incubated for 7 days under anaerobic condition followed incubation under aerobic condition for 7 days by MABA; format: functional; settings: 168 h
CYP2D6 = CYP2D6 (Homo sapiens, UniProt P10635); test: Inhibition of human microsomal CYP2D6 expressed in insect cells at 10 uM using MOBFC as substrate measured every minute for 1 hr by fluorescence-based assay; format: ADME; settings: probe MOBFC
CYP2D6, sequence (P10635 whole entry): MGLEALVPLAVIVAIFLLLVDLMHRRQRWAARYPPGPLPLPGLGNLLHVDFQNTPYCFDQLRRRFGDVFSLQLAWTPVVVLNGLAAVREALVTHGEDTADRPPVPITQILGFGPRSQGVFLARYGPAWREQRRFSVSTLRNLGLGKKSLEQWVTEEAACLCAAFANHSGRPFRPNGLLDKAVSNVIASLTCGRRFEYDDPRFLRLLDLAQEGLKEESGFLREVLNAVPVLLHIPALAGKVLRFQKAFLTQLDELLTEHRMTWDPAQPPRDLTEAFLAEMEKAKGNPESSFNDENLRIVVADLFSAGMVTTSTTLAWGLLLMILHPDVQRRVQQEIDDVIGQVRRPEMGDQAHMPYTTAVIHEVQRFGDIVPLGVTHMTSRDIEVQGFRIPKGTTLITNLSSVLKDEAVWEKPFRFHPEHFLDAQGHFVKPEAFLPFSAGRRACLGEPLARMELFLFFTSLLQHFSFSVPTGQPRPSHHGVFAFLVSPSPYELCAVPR

HepG2 = test: Cytotoxicity against human HepG2 cells after 24 hrs in presence of glucose by MTT assay; format: cell-based; settings: hepg2, 24 h
CYP2C9 = CYP2C9 (Homo sapiens, UniProt P11712); test: Inhibition of human microsomal CYP2C9 expressed in insect cells at 10 uM using OOMR as substrate measured every minute for 1 hr by fluorescence-based assay; format: ADME; settings: probe OOMR
CYP2C9, sequence (P11712 whole entry): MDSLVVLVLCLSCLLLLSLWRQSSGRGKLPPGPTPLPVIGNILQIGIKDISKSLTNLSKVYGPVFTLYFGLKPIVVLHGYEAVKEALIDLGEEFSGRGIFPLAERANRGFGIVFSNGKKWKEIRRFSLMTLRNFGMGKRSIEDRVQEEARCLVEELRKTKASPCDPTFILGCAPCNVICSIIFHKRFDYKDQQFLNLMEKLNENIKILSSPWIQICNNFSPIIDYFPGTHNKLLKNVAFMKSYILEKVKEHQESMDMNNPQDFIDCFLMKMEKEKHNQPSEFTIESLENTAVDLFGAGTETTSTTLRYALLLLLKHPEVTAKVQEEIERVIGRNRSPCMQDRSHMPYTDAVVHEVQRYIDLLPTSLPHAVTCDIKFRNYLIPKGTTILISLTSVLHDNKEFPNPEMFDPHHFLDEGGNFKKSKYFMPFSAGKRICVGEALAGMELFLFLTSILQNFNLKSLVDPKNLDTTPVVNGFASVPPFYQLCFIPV

[8] = Half life in rat plasma at 1 uM measured up to 3 hrs by LC-MS/MS analysis; format: ADME, cell-free
CYP3A4 = CYP3A4 (Homo sapiens, UniProt P08684); test: Inhibition of human microsomal CYP3A4 expressed in insect cells at 10 uM using BOMCC as substrate measured every minute for 1 hr by fluorescence-based assay; format: ADME; settings: probe BOMCC
CYP3A4, sequence (P08684 whole entry): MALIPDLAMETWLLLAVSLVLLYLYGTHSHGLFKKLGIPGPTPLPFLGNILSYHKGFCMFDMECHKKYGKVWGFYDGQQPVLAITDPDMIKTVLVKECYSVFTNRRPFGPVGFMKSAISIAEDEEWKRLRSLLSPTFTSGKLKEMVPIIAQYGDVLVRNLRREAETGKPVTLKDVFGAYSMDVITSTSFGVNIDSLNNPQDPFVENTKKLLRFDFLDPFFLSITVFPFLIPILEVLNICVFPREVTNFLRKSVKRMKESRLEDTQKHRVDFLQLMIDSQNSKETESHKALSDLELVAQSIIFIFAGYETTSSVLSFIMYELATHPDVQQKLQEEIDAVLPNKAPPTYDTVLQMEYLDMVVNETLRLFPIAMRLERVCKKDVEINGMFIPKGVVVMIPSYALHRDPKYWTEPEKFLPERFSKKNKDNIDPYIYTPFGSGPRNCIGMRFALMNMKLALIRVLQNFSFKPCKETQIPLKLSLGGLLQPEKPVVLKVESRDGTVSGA

[9] = Half life in human plasma at 1 uM measured up to 3 hrs by LC-MS/MS analysis; format: ADME, cell-free
[10] = Intrinsic clearance in rat microsomes; format: ADME, Microsome; settings: read-out: CLH
[11] = target: Voltage-gated inwardly rectifying potassium channel KCNH2 (Homo sapiens, UniProt Q12809); test: Inhibition of human ERG
Voltage-gated inwardly rectifying potassium channel KCNH2, sequence (Q12809 whole entry): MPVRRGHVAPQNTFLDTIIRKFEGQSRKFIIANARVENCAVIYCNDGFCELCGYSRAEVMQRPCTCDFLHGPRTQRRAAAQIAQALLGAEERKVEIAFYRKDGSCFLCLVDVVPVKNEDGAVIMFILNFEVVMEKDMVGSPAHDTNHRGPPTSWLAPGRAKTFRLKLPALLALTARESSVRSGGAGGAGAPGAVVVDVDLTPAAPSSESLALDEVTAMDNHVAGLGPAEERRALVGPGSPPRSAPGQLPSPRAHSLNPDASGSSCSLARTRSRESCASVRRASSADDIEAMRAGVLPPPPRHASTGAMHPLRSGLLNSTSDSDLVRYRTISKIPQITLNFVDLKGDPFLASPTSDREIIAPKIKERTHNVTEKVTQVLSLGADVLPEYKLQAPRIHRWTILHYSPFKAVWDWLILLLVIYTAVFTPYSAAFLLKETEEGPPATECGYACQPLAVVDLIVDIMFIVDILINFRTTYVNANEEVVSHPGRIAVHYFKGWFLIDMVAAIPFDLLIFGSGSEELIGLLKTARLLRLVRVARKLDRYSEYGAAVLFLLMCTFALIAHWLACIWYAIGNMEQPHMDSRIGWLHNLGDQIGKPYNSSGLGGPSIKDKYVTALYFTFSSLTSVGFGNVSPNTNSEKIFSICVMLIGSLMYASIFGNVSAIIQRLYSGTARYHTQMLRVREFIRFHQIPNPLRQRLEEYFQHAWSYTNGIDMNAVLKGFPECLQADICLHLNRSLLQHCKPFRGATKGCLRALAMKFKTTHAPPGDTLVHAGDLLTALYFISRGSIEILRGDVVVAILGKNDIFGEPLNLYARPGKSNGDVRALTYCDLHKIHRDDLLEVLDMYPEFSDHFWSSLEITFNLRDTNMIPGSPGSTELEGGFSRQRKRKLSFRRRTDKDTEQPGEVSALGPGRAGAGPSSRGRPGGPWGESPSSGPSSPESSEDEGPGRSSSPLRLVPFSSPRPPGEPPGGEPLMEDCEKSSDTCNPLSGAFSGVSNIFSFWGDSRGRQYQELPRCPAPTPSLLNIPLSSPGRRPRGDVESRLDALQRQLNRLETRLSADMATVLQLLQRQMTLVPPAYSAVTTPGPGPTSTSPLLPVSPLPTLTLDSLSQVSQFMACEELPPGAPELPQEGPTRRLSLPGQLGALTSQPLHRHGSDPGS

[12] = Aqueous solubility of compound; format: physicochemical; settings: buffer
[13] = Apparent permeability across basolateral to apical side in human Caco2 cells at 5 uM measured up to 180 mins by LC-MS/MS analysis; format: ADME, cell-based; settings: Caco-2
[14] = Metabolic stability in rat liver microsomes assessed as half life for metabolic turnover at 0.1 to 10 uM preincubated for 60 mins in presence of NADPH measured up to 60 mins by mass spectroscopic analysis; format: ADME, microsome
[15] = Drug level in Sprague-Dawley rat urine treated with 2-(4-(3,3-Difluoropyrrolidin-1-yl)phenyl)-5,7-difluoro-3-methylquinolin-4-yl acetate at 50 mg/kg, po via gavage up to 9 hrs by HPLC analysis; format: ADME, organism-based; settings: in vivo
[16] = Intrinsic clearance in human microsomes; format: ADME, Microsome; settings: read-out: CLH
[17] = Solubility of compound at pH 1; format: physicochemical; settings: buffer
[18] = Protein binding in human plasma at 1 uM after 18 hrs by equilibrium dialysis; format: ADME, cell-free; settings: read-out: PPB (converted)
[19] = Metabolic stability in human liver microsomes assessed as half life for metabolic turnover at 0.1 to 10 uM preincubated for 60 mins in presence of NADPH measured up to 60 mins by mass spectroscopic analysis; format: ADME, microsome
[20] = Drug level in Sprague-Dawley rat bile treated with 2-(4-(3,3-Difluoropyrrolidin-1-yl)phenyl)-5,7-difluoro-3-methylquinolin-4-yl acetate at 50 mg/kg, po via gavage up to 9 hrs by HPLC analysis; format: ADME, organism-based; settings: in vivo
CYP3A5 = CYP3A5 (Homo sapiens, UniProt P20815); test: Inhibition of human microsomal CYP3A5 expressed in insect cells at 10 uM using BOMCC as substrate measured every minute for 1 hr by fluorescence-based assay; format: ADME; settings: probe BOMCC
CYP3A5, sequence (P20815 whole entry): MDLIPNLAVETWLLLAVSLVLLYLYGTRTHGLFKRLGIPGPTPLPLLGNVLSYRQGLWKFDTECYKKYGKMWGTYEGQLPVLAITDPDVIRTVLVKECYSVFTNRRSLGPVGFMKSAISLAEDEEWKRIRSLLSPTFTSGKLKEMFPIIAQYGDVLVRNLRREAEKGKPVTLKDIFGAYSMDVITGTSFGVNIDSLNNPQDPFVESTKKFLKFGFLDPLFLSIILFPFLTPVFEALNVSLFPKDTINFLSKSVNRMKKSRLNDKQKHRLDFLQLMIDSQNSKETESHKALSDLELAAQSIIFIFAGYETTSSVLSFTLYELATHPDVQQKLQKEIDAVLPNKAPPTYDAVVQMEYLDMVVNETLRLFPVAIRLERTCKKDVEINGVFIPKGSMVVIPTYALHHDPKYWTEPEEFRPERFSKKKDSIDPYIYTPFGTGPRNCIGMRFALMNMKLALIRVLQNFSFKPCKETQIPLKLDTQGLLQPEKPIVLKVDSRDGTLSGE

Salmonella typhimurium = test: Mutagenicity in Salmonella typhimurium by Ames test; format: toxicity; settings: salmonella enterica subsp. enterica serovar typhimurium
CYP2C8 = target: T1, CYP2C8 (Homo sapiens, UniProt P10632); test: Inhibition of human microsomal CYP2C8 expressed in insect cells at 10 uM using DBOMF as substrate measured every minute for 1 hr by fluorescence-based assay; format: ADME; settings: probe DBOMF
T1 sequence (P10632 whole entry): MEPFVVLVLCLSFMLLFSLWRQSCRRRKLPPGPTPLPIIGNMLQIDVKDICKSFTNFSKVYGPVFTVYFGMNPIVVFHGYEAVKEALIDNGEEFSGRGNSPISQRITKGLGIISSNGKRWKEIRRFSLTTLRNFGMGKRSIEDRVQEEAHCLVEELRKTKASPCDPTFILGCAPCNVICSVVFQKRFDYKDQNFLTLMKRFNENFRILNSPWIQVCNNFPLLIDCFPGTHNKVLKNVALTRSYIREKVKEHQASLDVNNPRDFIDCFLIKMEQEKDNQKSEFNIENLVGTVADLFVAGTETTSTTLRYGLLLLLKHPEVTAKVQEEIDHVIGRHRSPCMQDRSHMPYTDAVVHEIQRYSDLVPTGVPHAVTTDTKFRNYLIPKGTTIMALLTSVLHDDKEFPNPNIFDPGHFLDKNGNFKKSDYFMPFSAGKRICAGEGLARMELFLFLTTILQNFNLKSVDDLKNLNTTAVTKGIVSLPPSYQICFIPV

[21] = Intrinsic clearance in rat hepatocytes assessed per million cells; format: ADME, cell-based, Hepatocyte; settings: read-out: CLH
[22] = Apparent permeability across apical to basolateral side in human Caco2 cells at 5 uM measured up to 180 mins by LC-MS/MS analysis; format: ADME, cell-based; settings: Caco-2
[23] = Solubility of compound in Middlebrook 7H9 broth media containing 10% albumin-dextrose-catalase solution; format: physicochemical
[24] = Inhibition of Mycobacterium tuberculosis NDH by HTS-based assay
[25] = system: Mycobacterium tuberculosis; test: Growth inhibition of replicating Mycobacterium tuberculosis H37Rv at 5 uM after 7 days by MABA method relative to control; format: functional; settings: 168 h, read-out: GI
[26] = Lipophilicity, logD of compound at pH 7.4; settings: buffer

SMILES | IC50 [2] [nM] | IC90 [3] [nM] | half-life at up to 10 µM [4] [h] | Retention time [5] [min] | solubility [6] [µg/mL] | Activity (HepG2) [µM] | half-life at 1 µM [8] [h] | half-life at 1 µM [9] [h] | half-life at up to 10 µM [14] [h] | Drug metabolism [15] | solubility [17] [µg/mL] | fraction unbound at 18 h, 1 µM [18] | half-life at up to 10 µM [19] [h] | Drug metabolism [20] | Papp A→B at 3 h, 5 µM [22] [×10⁻⁶ cm/s] | solubility [23] [µg/mL] | further results
Cc1c(-c2ccc(N3CCC(F)(F)C3)cc2)[nH]c2cc(F)cc(F)c2c1=O | 525 to 530 | 1100 | 1.92 | 11.4 | < 1 | > 100 | > 3 | > 3 | 1.03 | Metabolite_Detected | < 1 | 0.003 to 0.027 | 1.21 | Metabolite_Detected | 10 | 55 (≈ 146 µM) | microsomal CLint [1]: 6.03 µL/min/mg; IC90 [7]: 76 nM; inhibition at 1 h, 10 µM (CYP2D6): 0%; inhibition at 1 h, 10 µM (CYP2C9): 0%; inhibition at 1 h, 10 µM (CYP3A4): 0%; microsomal CLint [10]: 11.2 µL/min/mg; IC50 [11]: > 25000 nM; solubility [12]: 0.2 µM (≈ 0.0753 µg/mL); Papp B→A at 3 h, 5 µM [13]: 9.8 ×10⁻⁶ cm/s; microsomal CLint [16]: 9.52 to 89.7 µL/min/mg; inhibition at 1 h, 10 µM (CYP3A5): 0%; Activity (Salmonella typhimurium): Non-Toxic; inhibition at 1 h, 10 µM (CYP2C8): 38%; hepatocyte CLint [21]: 52.2 µL/min/1e6 cells
COc1ccc2c(=O)c(C)c(-c3ccc(N4CCCCC4)cc3)[nH]c2c1 | 730 |  |  |  |  |  |  |  |  |  |  |  |  |  |  |  | IC50 [24]: 730 nM; inhibition of growth at 5 µM [25]: > 50%
OCc1c(-c2ccc(N3CC(O)C(F)(F)C3)cc2)nc2cc(F)cc(F)c2c1O (stereo not given) |  |  |  | 8.6 |  |  |  |  |  | Metabolite_Detected |  |  |  | Metabolite_Detected |  |  | 
Cc1c(-c2ccc(N3CCCCC3)cc2)[nH]c2ccccc2c1=O | 1500 |  |  |  |  |  |  |  |  |  |  |  |  |  |  |  | IC50 [24]: 1500 nM; inhibition of growth at 5 µM [25]: > 50%
Cc1c(-c2ccc(-n3cccc3)cc2)[nH]c2cc(F)cc(F)c2c1=O | 432 to 440 | 690 | 0.345 |  | 3.6 (≈ 10.7 µM) | 141 | > 3 | > 3 | 0.502 |  | 5.1 (≈ 15.2 µM) | 0.039 | 0.17 |  | 31 | 61 (≈ 181 µM) | 
Cc1c(-c2ccc(N3CCCC(F)C3)cc2)[nH]c2cc(F)cc(F)c2c1=O (stereo not given) | 300 to 310 | 560 | 0.113 |  | < 1 | 188.1 | > 3 | > 3 | 0.168 |  | > 150 | 0.0155 | 0.13 |  | 22.9 | 10 (≈ 26.9 µM) | 
Cc1c(-c2ccc(N3CC(O)C(F)(F)C3)cc2)nc2cc(F)cc(F)c2c1O (stereo not given) |  |  |  | 10.1 |  |  |  |  |  | Metabolite_Detected |  |  |  | Metabolite_Detected |  |  | 
Cc1c(-c2ccc(N3CC[C@H](F)C3)cc2)[nH]c2cc(F)cc(F)c2c1=O | 1800 |  |  |  | < 1 |  | > 3 | > 3 |  |  | < 1 | 0.0103 to 0.014 |  |  | 15.5 | 2.5 (≈ 6.98 µM) | solubility [12]: 1 µM (≈ 0.358 µg/mL); microsomal CLint [16]: 197 µL/min/mg; logD [26]: 3.6; hepatocyte CLint [21]: 150 µL/min/1e6 cells
